Assay [1] has as its system splenic immune cells (T cells, myeloid cells, B cells, NK cells). The assay can be described thus: mOX40L expression in splenic immune cells, flow cytometry. Type of assay: in vivo, C57BL/6 female mice. Particulars: 1 mg/kg intravenously, 24 hours, IL:P 5.7, 50:10:38.5:1.5; compared to Lipid 15 of Table 10f. As for the experimental part: The ionizable lipid: helper lipid: cholesterol: PEG-lipid molar ratio of these LNPs was 50:10:38.5:1.5. Dialysis of the LNPs were performed using PBS. C57BL/6 female mice (6-8 weeks, n=4) were dosed at either LNP comprising Lipid 1 of Table 10e or the Lipid 15 of Table 10f at 1 mg/kg intravenously. At 24 hours, the spleen from the mice were collected for flow cytometry analysis. mOX40L transfection of Lipid 1 of Table 10e and Lipid 15 of Table 10f were compared in T cells, myeloid cells, B cells, and NK cells.
(In general: In flow cytometry, cells or beads pass a laser one at a time.)

Another assay deals with splenic T cells. The assay can be described thus: mOX40L expression in splenic T cells, flow cytometry. Type of assay: in vivo, C57BL/6 female mice. Particulars: 1 mg/kg intravenously, 24 hours, IL:P 5.7. How it is done: The ionizable lipid: helper lipid: cholesterol: PEG-lipid molar ratio of these LNPs was 50:10:38.5:1.5. C57BL/6 female mice (6-8 weeks, n=4) were dosed at 1 mg/kg intravenously. At 24 hours, the spleen from the mice were collected for flow cytometry analysis, tested for weight loss and measured for serum alanine aminotransferase (ALT) after blood collection. mOX40L expression was measured in splenic T cells.

Here are results for 1 molecule from patent publication US12077485B2, “Lipid nanoparticle compositions for delivering circular polynucleotides” (Orna Therapeutics, Inc., priority 2021, dated 2024).

With `CCCCCCCCCCCCC(O)CN(CCCO)CCCCCCCC(=O)OC(CCCCCCCC)CCCCCCCC` (centres unmarked) [Lipid 1 of Table 10e, heptadecan-9-yl 8-((3-hydroxypropyl)(2-hydroxytetradecyl)amino)octanoate], the “mOX40L transfection in splenic immune cells” value in assay [1] is “comparable or higher levels of mOX40L transfection”. Also, the “expression of mOX40L in splenic T cells” value in the assay with splenic T cells is “resulted in expression of mOX40L in splenic T cells”.
